# Experimental data reported in ChEMBL document CHEMBL1201862, “PubChem BioAssay data set” (2004).
#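 A five-concentration, 48-hour dose response in 96-well plates underlies each endpoint, interpolated linearly between surrounding concentrations. At the GI50, growth is halved.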 Activity calls are given as the source filed them. Cut-off read from the data, not from the text of the source: active = GI50 up to about 1.1 µM and inactive = higher.
# Columns and labels:
# Assay in all cases: NCI anticancer screen, dose series, 48 h
# 786-0 = system: 786-0
# A498 = system: A498
# A549 = system: A549
# ACHN = system: ACHN
# BT-549 = system: BT-549
# CAKI-1 = system: CAKI-1
# CCRF-CEM = system: CCRF-CEM
# COLO 205 = system: COLO 205
# DU-145 = system: DU-145
# EKVX = system: EKVX
# HCC 2998 = system: HCC 2998
# HCT-116 = system: HCT-116
# HCT-15 = system: HCT-15
# HOP-62 = system: HOP-62
# HOP-92 = system: HOP-92
# Hs-578T = system: Hs-578T
# IGROV-1 = system: IGROV-1
# K562 = system: K562
# KM12 = system: KM12
# LOX IMVI = system: LOX IMVI
# M14 = system: M14
# MCF7 = system: MCF7
# MDA-MB-231 = system: MDA-MB-231
# MDA-MB-435 = system: MDA-MB-435
# MDA-N = system: MDA-N
# MOLT-4 = system: MOLT-4
# Malme-3M = system: Malme-3M
# NCI-H23 = system: NCI-H23
# NCI-H460 = system: NCI-H460
# NCI-H522 = system: NCI-H522
# NCI/ADR-RES = system: NCI/ADR-RES
# OVCAR-3 = system: OVCAR-3
# OVCAR-4 = system: OVCAR-4
# OVCAR-5 = system: OVCAR-5
# OVCAR-8 = system: OVCAR-8
# PC-3 = system: PC-3
# RPMI-8226 = system: RPMI-8226
# RXF 393 = system: RXF 393
# SF-268 = system: SF-268
# SF-295 = system: SF-295
# SK-MEL-28 = system: SK-MEL-28
# SK-MEL-2 = system: SK-MEL-2
# SK-MEL-5 = system: SK-MEL-5
# SK-OV-3 = system: SK-OV-3
# SN12C = system: SN12C
# SNB-19 = system: SNB-19
# SNB-75 = system: SNB-75
# SR = system: SR
# SW-620 = system: SW-620
# T47D = system: T47D
# TK-10 = system: TK-10
# U-251 = system: U-251
# UACC-257 = system: UACC-257
# UACC-62 = system: UACC-62
# UO-31 = system: UO-31
# HL-60 = system: HL-60
# HT-29 = system: HT-29
# NCI-H226 = system: NCI-H226
# SF-539 = system: SF-539
smiles,measurement,setting,value
Cc1[nH]c(/C=C2\C(=O)Nc3ccccc32)c(C)c1CCC(=O)O [ORANTINIB],GI50,786-0,51.4 µM (inactive)
same,GI50,A498,55 µM (inactive)
same,GI50,A549,33.9 µM (inactive)
same,GI50,ACHN,30.5 µM (inactive)
same,GI50,BT-549,34.1 µM (inactive)
same,GI50,CAKI-1,22.1 µM (inactive)
same,GI50,CCRF-CEM,34.7 µM (inactive)
same,GI50,COLO 205,20.6 µM (inactive)
same,GI50,DU-145,31.5 µM (inactive)
same,GI50,EKVX,28.5 µM (inactive)
same,GI50,HCC 2998,35.6 µM (inactive)
same,GI50,HCT-116,31.1 µM (inactive)
same,GI50,HCT-15,31.4 µM
same,GI50,HOP-62,29.4 µM (inactive)
same,GI50,HOP-92,21.8 µM (inactive)
same,GI50,Hs-578T,37.9 µM (inactive)
same,GI50,IGROV-1,21.9 µM (inactive)
same,GI50,K562,36.4 µM (inactive)
same,GI50,KM12,4.37 µM (inactive)
same,GI50,LOX IMVI,28.4 µM (inactive)
same,GI50,M14,23.1 µM (inactive)
same,GI50,MCF7,28.1 µM (inactive)
same,GI50,MDA-MB-231,37.9 µM (inactive)
same,GI50,MDA-MB-435,36.5 µM (inactive)
same,GI50,MDA-N,27.2 µM (inactive)
same,GI50,MOLT-4,30.1 µM (inactive)
same,GI50,Malme-3M,21.2 µM (inactive)
same,GI50,NCI-H23,27.7 µM (inactive)
same,GI50,NCI-H460,31 µM (inactive)
same,GI50,NCI-H522,34.1 µM (inactive)
same,GI50,NCI/ADR-RES,37.3 µM (inactive)
same,GI50,OVCAR-3,22.1 µM (inactive)
same,GI50,OVCAR-4,33.6 µM (inactive)
same,GI50,OVCAR-5,27.5 µM (inactive)
same,GI50,OVCAR-8,40.7 µM (inactive)
same,GI50,PC-3,35.7 µM (inactive)
same,GI50,RPMI-8226,22.8 µM (inactive)
same,GI50,RXF 393,29.1 µM (inactive)
same,GI50,SF-268,34.4 µM (inactive)
same,GI50,SF-295,32.5 µM (inactive)
same,GI50,SK-MEL-28,31.1 µM (inactive)
same,GI50,SK-MEL-2,16.8 µM (inactive)
same,GI50,SK-MEL-5,26.5 µM (inactive)
same,GI50,SK-OV-3,30.1 µM (inactive)
same,GI50,SN12C,31 µM (inactive)
same,GI50,SNB-19,53.5 µM (inactive)
same,GI50,SNB-75,12.6 µM (inactive)
same,GI50,SR,23.9 µM (inactive)
same,GI50,SW-620,25.7 µM (inactive)
same,GI50,T47D,34.1 µM (inactive)
same,GI50,TK-10,42.5 µM (inactive)
same,GI50,U-251,59.4 µM (inactive)
same,GI50,UACC-257,23.7 µM (inactive)
same,GI50,UACC-62,32.2 µM (inactive)
same,GI50,UO-31,32.7 µM (inactive)
O=C1NC2CCCCC2NC1=C(C(=O)c1ccccc1)C(=O)c1ccccc1 (stereo unspecified),GI50,786-0,> 100 µM (inactive)
same,GI50,A498,> 100 µM (inactive)
same,GI50,A549,34 µM (inactive)
same,GI50,ACHN,33.6 µM (inactive)
same,GI50,BT-549,10.9 µM (inactive)
same,GI50,CAKI-1,36.4 µM (inactive)
same,GI50,CCRF-CEM,11 µM (inactive)
same,GI50,COLO 205,32.8 µM (inactive)
same,GI50,DU-145,> 100 µM (inactive)
same,GI50,EKVX,70.6 µM (inactive)
same,GI50,HCC 2998,70.8 µM (inactive)
same,GI50,HCT-116,40.7 µM (inactive)
same,GI50,HCT-15,23.3 µM
same,GI50,HL-60,46.7 µM (inactive)
same,GI50,HOP-62,52.6 µM (inactive)
same,GI50,HT-29,36.8 µM (inactive)
same,GI50,Hs-578T,62.8 µM (inactive)
same,GI50,IGROV-1,26.3 µM (inactive)
same,GI50,K562,35.5 µM (inactive)
same,GI50,KM12,42.7 µM (inactive)
same,GI50,LOX IMVI,38.1 µM (inactive)
same,GI50,M14,66.4 µM (inactive)
same,GI50,MCF7,16.9 µM (inactive)
same,GI50,MDA-MB-231,24.3 µM (inactive)
same,GI50,MDA-MB-435,46.6 µM (inactive)
same,GI50,MDA-N,70.3 µM (inactive)
same,GI50,MOLT-4,20.5 µM (inactive)
same,GI50,Malme-3M,> 100 µM (inactive)
same,GI50,NCI-H226,12.5 µM (inactive)
same,GI50,NCI-H23,22.4 µM (inactive)
same,GI50,NCI-H460,27.4 µM (inactive)
same,GI50,NCI-H522,18.9 µM (inactive)
same,GI50,NCI/ADR-RES,29.2 µM (inactive)
same,GI50,OVCAR-3,67.5 µM (inactive)
same,GI50,OVCAR-5,> 100 µM (inactive)
same,GI50,OVCAR-8,25.5 µM (inactive)
same,GI50,PC-3,53 µM (inactive)
same,GI50,RPMI-8226,28.8 µM (inactive)
same,GI50,RXF 393,> 100 µM (inactive)
same,GI50,SF-268,69.2 µM (inactive)
same,GI50,SF-295,40.8 µM (inactive)
same,GI50,SF-539,43.2 µM (inactive)
same,GI50,SK-MEL-28,78.2 µM (inactive)
same,GI50,SK-MEL-2,33.6 µM (inactive)
same,GI50,SK-MEL-5,27.5 µM (inactive)
same,GI50,SK-OV-3,25.4 µM (inactive)
same,GI50,SN12C,20.7 µM (inactive)
same,GI50,SNB-19,65.9 µM (inactive)
same,GI50,SR,27.2 µM (inactive)
same,GI50,SW-620,39.3 µM (inactive)
same,GI50,T47D,> 100 µM (inactive)
same,GI50,TK-10,84.1 µM (inactive)
same,GI50,U-251,26.6 µM (inactive)
same,GI50,UACC-257,95.7 µM (inactive)
same,GI50,UACC-62,22.8 µM (inactive)
same,GI50,UO-31,26.9 µM (inactive)
